In paper PMC10619691, “Effect of cyclic substituents on the anti-cancer activity and DNA interaction of ruthenium(II) bis-phenanthroline dipyridoquinoline” (Frontiers in Molecular Biosciences, 2023):

Assays:
Assay type in all cases: cell-based, human
HeLa cells [1] = experiment: Annexin V apoptosis assay
Procedure: To further analyze the cytotoxicity mechanisms, annexin V was used to determine whether VNK-572/cisplatin exerts an anti-cancer activity through apoptosis. The Annexin V assay was performed following the established procedure. The steps included treating the cells with the complex for 24, 48, and 72 h in 6-well plates and incubating at 37°C. The cells were then rinsed with PBS, trypsinized, and neutralized using culture media. The cells were then spun in the centrifuge at 2500 RPM for 3 min, and the supernatant was discarded. The cell pellet was then washed first with PBS and then with ×1 binding buffer. The cells were then suspended in approximately 1 mL of binding buffer (1–5 million cells), and approximately 100 ul of this suspension was stained with 5 μL of annexin V-APC dye for 15 min. The cells were then washed with binding buffer and resuspended in 200 μL of binding buffer before being stained with 5 ul of propidium iodide. The cells were then analyzed using a flow cytometer within 4 h.

DU145 cells = experiment: cell cycle analysis
Procedure: (§1) The cell cycle of cervical HeLa and prostate DU145 cancer cells was studied after treatment with VNK-572 and cisplatin, respectively (Figure 3). VNK-572 and cisplatin both reduced the G2 population after 72 h compared to control (e.g., 16%–11% in Hela (p = 0.06) and from 17% to 2% in the DU145 cell line (p = 0.003) for VNK-572) (Figure 3A). […] The DU145 cells saw a decrease in both phases following 72 h of treatment—from 68% to 40% and from 11% to 5% for the G1 and S phases, respectively (Figure 3A).

HeLa cells [2] = experiment: cell cycle analysis
Procedure: as §1

F[P-](F)(F)(F)(F)F.F[P-](F)(F)(F)(F)F.[Ru+2].c1cnc2c(c1)c1ncc3c(c1c1cccnc12)CCCC3.c1cnc2c(c1)ccc1cccnc12.c1cnc2c(c1)ccc1cccnc12 [VNK-572]
Q2 (propidium iodide and annexin V APC-stained cells), late-stage apoptosis (HeLa cells [1]; 72 h of treatment, control 2%): 11%
Q4 (annexin V APC), early apoptosis (HeLa cells [1]; 72 h of treatment, control 14% (VNK-572), 13% (cisplatin)): 26%
Q1 (necrosis) (HeLa cells [1]; after 72 h of treatment): < 6%
S phase population (DU145 cells; DU145, 72 h of treatment, control 11%): 5%
G1 phase population (DU145 cells; DU145, 72 h of treatment, control 68%): 40%
sub-G1 population (DU145 cells; DU145, after 72 h, control 1%): 51%
G2 population (DU145 cells; DU145, after 72 h, control 17%): 2%
changes in G1 / S phases (HeLa cells [2]): only slight changes
sub-G1 population (HeLa cells [2]; 72 h of treatment, control 5% (VNK-572), 6% (cisplatin)): 12%
G2 population (HeLa cells [2]; after 72 h, control 16%): 11%
